Bounds are passed on as bounds.

The test system of data set [1] is recombinant NL4-3 virus (Renilla luciferase reporter) in MT-2 cells. The data set can be described thus: HIV cell culture assay (antiviral activity, luciferase readout in infected MT-2 cells). Format: cell-based. The note with it: NL43. As to the method: HIV cell culture assay—MT-2 cells, 293T cells and the proviral DNA clone of NL4-3 virus were obtained from the NIH AIDS Research and Reference Reagent Program. MT-2 cells were propagated in RPMI 1640 media supplemented with 10% heat inactivated fetal bovine serum (FBS), […]. The 293T cells were propagated in DMEM media supplemented with 10% heat inactivated FBS, […]. A recombinant NL4-3 proviral clone, in which a section of the nef gene was replaced with the Renilla luciferase gene, was used to make the reference virus used in these studies. The recombinant virus was prepared through transfection of the recombinant NL4-3 proviral clone into 293T cells using Transit-293 Transfection Reagent from Mirus Bio LLC (Madison, Wis.). Supernatent was harvested after 2-3 days and the amount of virus present was titered in MT-2 cells using luciferase enzyme activity as a marker by measuring luciferase enzyme activity. Luciferase was quantitated using the EnduRen Live Cell Substrate from Promega (Madison, Wis.). Antiviral activities of compounds toward the recombinant virus were quantified by measuring luciferase activity in MT-2 cells infected for 4-5 days with the recombinant virus in the presence of serial dilutions of the compound.
The 50% effective concentration (EC50) was calculated by using the exponential form of the median effect equation where (Fa)=1/[1+(EC50/drug conc.)m] (Johnson V A, Byington RT. Infectivity Assay. In Techniques in HIV Research, ed. Aldovini A, Walker B D. 71-76. New York: Stockton Press. 1990). The 50% inhibitory concentration (EC50) was calculated by using the exponential form of the median effect equation where percent inhibition=1/[1+(EC50/drug concentration)m], where m is a parameter that reflects the slope of the concentration-response curve.

Data set [2] can be described thus: Compound cytotoxicity, XTT-based colorimetric assay. In kind it is cell-based. The following applies: human; uninfected MT2 cells, day 4, XTT; read-out: CC50. As to the method: Compound cytotoxicity and the corresponding CC50 values were determined using the same protocol as described in the antiviral assay except that uninfected cells were used. Cytotoxicity was assessed on day 4 in uninfected MT2 cells by using a XTT (2,3-bis [2-Methoxy-4-nitro-5-sulfophenyl]-2H-tetrazolium-5-carboxyanilide inner salt)-based colorimetric assay (Sigma-Aldrich, St Louis, Mo.).
A general note: Formazan colour is commonly taken as a measure of viable cells.

The term EC50 denotes the concentration needed to bring the measured effect to its halfway point. The term CC50 denotes the concentration at which the toxic effect on the cells reaches its halfway point. For the molecule `Cn1nc(NS(C)(=O)=O)c2c(Cl)ccc(-n3c([C@H](Cc4cc(F)cc(F)c4)NC(=O)Cn4nc(C(F)F)c5c4C(F)(F)[C@@H]4C[C@H]54)nc4nc(NCCC(F)(F)F)ccc4c3=O)c21` (atropisomer, axis not shown; (P)) [Example 32, N—((S)-1-((3P)-3-(4-chloro-1-methyl-3-(methylsulfonamido)-1H-indazol-7-yl)-4-oxo-7-((3,3,3-trifluoropropyl)amino)-3,4-dihydropyrido[2,3-d]pyrimidin-2-yl)-2-(3,5-difluorophenyl)ethyl)-2-((3bS,4aR)-3-(difluoromethyl)-5,5-difluoro-3b,4,4a,5-tetrahydro-1H-cyclopropa[3,4]cyclopenta[1,2-c]pyrazol-1-yl)acetamide], the EC50 in data set [1] was found to be 42 pM. In addition, the CC50 at 4 days in data set [2] was above 100000 pM.

For the molecule `Cn1nc(NS(C)(=O)=O)c2c(Cl)ccc(-n3c([C@H](Cc4cc(F)cc(F)c4)NC(=O)Cn4nc(C(F)F)c5c4C(F)(F)[C@@H]4C[C@H]54)nc4nc(NCCC(F)F)ccc4c3=O)c21` (atropisomer, axis not shown; (P)) [Example 34, N—((S)-1-((3P)-3-(4-chloro-1-methyl-3-(methylsulfonamido)-1H-indazol-7-yl)-7-((3,3-difluoropropyl)amino)-4-oxo-3,4-dihydropyrido[2,3-d]pyrimidin-2-yl)-2-(3,5-difluorophenyl)ethyl)-2-((3bS,4aR)-3-(difluoromethyl)-5,5-difluoro-3b,4,4a,5-tetrahydro-1H-cyclopropa[3,4]cyclopenta[1,2-c]pyrazol-1-yl)acetamide], the EC50 in data set [1] was determined as 55 pM. Also, the CC50 at 4 days in data set [2] was above 100000 pM.

Regarding `Cn1nc(NS(C)(=O)=O)c2c(Cl)ccc(-n3c([C@H](Cc4cc(F)cc(F)c4)NC(=O)Cn4nc(C(F)F)c5c4C(F)(F)[C@@H]4C[C@H]54)nc4nc(NCCCF)ccc4c3=O)c21` (atropisomer, axis not shown; (P)) [Example 35, N—((S)-1-((3P)-3-(4-chloro-1-methyl-3-(methylsulfonamido)-1H-indazol-7-yl)-7-((3-fluoropropyl)amino)-4-oxo-3,4-dihydropyrido[2,3-d]pyrimidin-2-yl)-2-(3,5-difluorophenyl)ethyl)-2-((3bS,4aR)-3-(difluoromethyl)-5,5-difluoro-3b,4,4a,5-tetrahydro-1H-cyclopropa[3,4]cyclopenta[1,2-c]pyrazol-1-yl)acetamide], the EC50 in data set [1] came to 110 pM. For the same molecule, the CC50 at 4 days in data set [2] was above 100000 pM.

As for `C[C@@H]1CN(c2ccc3c(=O)n(-c4ccc(Cl)c5c(NS(C)(=O)=O)nn(C)c45)c([C@H](Cc4cc(F)cc(F)c4)NC(=O)Cn4nc(C(F)F)c5c4C(F)(F)[C@@H]4C[C@H]54)nc3n2)C[C@H](C)O1` (atropisomer, axis not shown; (aR)) [Example 1, N—((S)-1-(3-(4-chloro-1-methyl-3-(methylsulfonamido)-1H-indazol-7-yl)-7-((2S,6R)-2,6-dimethylmorpholino)-4-oxo-3,4-dihydropyrido[2,3-d]pyrimidin-2-yl)-2-(3,5-difluorophenyl)ethyl)-2-((3bS,4aR)-3-(difluoromethyl)-5,5-difluoro-3b,4,4a,5-tetrahydro-1H-cyclopropa[3,4]cyclopenta[1,2-c]pyrazol-1-yl)acetamide], the EC50 in data set [1] turned out to be 41 pM. Further, in data set [2], the CC50 at 4 days was above 500000 pM.

Regarding `C[C@@H]1CN(c2ccc3c(=O)n(-c4ccc(Cl)c5c(NS(C)(=O)=O)nn(C)c45)c([C@H](Cc4cc(F)cc(F)c4)NC(=O)Cn4nc(C(F)(F)F)c5c4C(F)(F)[C@@H]4C[C@H]54)nc3n2)C[C@H](C)O1` (atropisomer, axis not shown; (aR)) [Example 2, N—((S)-1-(3-(4-chloro-1-methyl-3-(methylsulfonamido)-1H-indazol-7-yl)-7-((2S,6R)-2,6-dimethylmorpholino)-4-oxo-3,4-dihydropyrido[2,3-d]pyrimidin-2-yl)-2-(3,5-difluorophenyl)ethyl)-2-((3bS,4aR)-5,5-difluoro-3-(trifluoromethyl)-3b,4,4a,5-tetrahydro-1H-cyclopropa[3,4]cyclopenta[1,2-c]pyrazol-1-yl)acetamide], the EC50 in data set [1] turned out to be 36 pM. Further, the CC50 at 4 days in data set [2] is above 500000 pM.

Regarding `C[C@@H]1CN(c2ccc3c(=O)n(-c4ccc(Cl)c5c(NS(C)(=O)=O)nn(CC(F)F)c45)c([C@H](Cc4cc(F)cc(F)c4)NC(=O)Cn4nc(C(F)F)c5c4C(F)(F)[C@@H]4C[C@H]54)nc3n2)C[C@H](C)O1` (atropisomer, axis not shown; (aR)) [Example 3, N—((S)-1-(3-(4-chloro-1-(2,2-difluoroethyl)-3-(methylsulfonamido)-1H-indazol-7-yl)-7-((2S,6R)-2,6-dimethylmorpholino)-4-oxo-3,4-dihydropyrido[2,3-d]pyrimidin-2-yl)-2-(3,5-difluorophenyl)ethyl)-2-((3bS,4aR)-3-(difluoromethyl)-5,5-difluoro-3b,4,4a,5-tetrahydro-1H-cyclopropa[3,4]cyclopenta[1,2-c]pyrazol-1-yl)acetamide], the EC50 in data set [1] was found to be 32 pM. Moreover, the CC50 at 4 days in data set [2] is above 500000 pM.

Turning to `C[C@@H]1CN(c2ccc3c(=O)n(-c4ccc(Cl)c5c(NS(C)(=O)=O)nn(CC(F)F)c45)c([C@H](Cc4cc(F)cc(F)c4)NC(=O)Cn4nc(C(F)(F)F)c5c4C(F)(F)[C@@H]4C[C@H]54)nc3n2)C[C@H](C)O1` (atropisomer, axis not shown; (aR)) [Example 4, N—((S)-1-(3-(4-chloro-1-(2,2-difluoroethyl)-3-(methylsulfonamido)-1H-indazol-7-yl)-7-((2S,6R)-2,6-dimethylmorpholino)-4-oxo-3,4-dihydropyrido[2,3-d]pyrimidin-2-yl)-2-(3,5-difluorophenyl)ethyl)-2-((3bS,4aR)-5,5-difluoro-3-(trifluoromethyl)-3b,4,4a,5-tetrahydro-1H-cyclopropa[3,4]cyclopenta[1,2-c]pyrazol-1-yl)acetamide], the EC50 in data set [1] was 31 pM. Moreover, the CC50 at 4 days in data set [2] is above 500000 pM.

On to `C[C@@H]1CN(c2ccc3c(=O)n(-c4ccc(Cl)c5c(NS(=O)(=O)C6CC6)nn(CC(F)F)c45)c([C@H](Cc4cc(F)cc(F)c4)NC(=O)Cn4nc(C(F)F)c5c4C(F)(F)[C@@H]4C[C@H]54)nc3n2)C[C@H](C)O1` (atropisomer, axis not shown; (aR)) [Example 5, N—((S)-1-(3-(4-chloro-3-(cyclopropanesulfonamido)-1-(2,2-difluoroethyl)-1H-indazol-7-yl)-7-((2S,6R)-2,6-dimethylmorpholino)-4-oxo-3,4-dihydropyrido[2,3-d]pyrimidin-2-yl)-2-(3,5-difluorophenyl)ethyl)-2-((3bS,4aR)-3-(difluoromethyl)-5,5-difluoro-3b,4,4a,5-tetrahydro-1H-cyclopropa[3,4]cyclopenta[1,2-c]pyrazol-1-yl)acetamide], for which, in data set [1], the EC50 was 30 pM. Further, the CC50 at 4 days in data set [2] is above 500000 pM.

Regarding `C[C@@H]1CN(c2ccc3c(=O)n(-c4ccc(Cl)c5c(NS(=O)(=O)C6CC6)nn(CC(F)F)c45)c([C@H](Cc4cc(F)cc(F)c4)NC(=O)Cn4nc(C(F)(F)F)c5c4C(F)(F)[C@@H]4C[C@H]54)nc3n2)C[C@H](C)O1` (atropisomer, axis not shown; (aR)) [Example 6, N—((S)-1-(3-(4-chloro-3-(cyclopropanesulfonamido)-1-(2,2-difluoroethyl)-1H-indazol-7-yl)-7-((2S,6R)-2,6-dimethylmorpholino)-4-oxo-3,4-dihydropyrido[2,3-d]pyrimidin-2-yl)-2-(3,5-difluorophenyl)ethyl)-2-((3bS,4aR)-5,5-difluoro-3-(trifluoromethyl)-3b,4,4a,5-tetrahydro-1H-cyclopropa[3,4]cyclopenta[1,2-c]pyrazol-1-yl)acetamide], the EC50 in data set [1] stood at 40 pM. For the same molecule, the CC50 at 4 days in data set [2] is above 500000 pM.

Regarding `C[C@@H]1CN(c2ccc3c(=O)n(-c4ccc(Cl)c5c(NS(C)(=O)=O)nn(CC(F)(F)F)c45)c([C@H](Cc4cc(F)cc(F)c4)NC(=O)Cn4nc(C(F)F)c5c4C(F)(F)[C@@H]4C[C@H]54)nc3n2)C[C@H](C)O1` (atropisomer, axis not shown; (aR)) [Example 7, N—((S)-1-(3-(4-chloro-3-(methylsulfonamido)-1-(2,2,2-trifluoroethyl)-1H-indazol-7-yl)-7-((2S,6R)-2,6-dimethylmorpholino)-4-oxo-3,4-dihydropyrido[2,3-d]pyrimidin-2-yl)-2-(3,5-difluorophenyl)ethyl)-2-((3bS,4aR)-3-(difluoromethyl)-5,5-difluoro-3b,4,4a,5-tetrahydro-1H-cyclopropa[3,4]cyclopenta[1,2-c]pyrazol-1-yl)acetamide], the EC50 in data set [1] came to 28 pM. Also, the CC50 at 4 days in data set [2] was above 500000 pM.

These data come from patent US20210395248A1, “INHIBITORS OF HUMAN IMMUNODEFICIENCY VIRUS REPLICATION” (ViiV HEALTHCARE UK (NO.5) LIMITED, priority 2018, published 2021).
